The test system of one assay is S. pyogenes (ATCC 51339). Put plainly: Bacterial assay: MIC against S. pyogenes. The assay is classed as cell-based, Streptococcus pyogenes. The settings on record: Streptococcus pyogenes, ATCC51339, read-out: minimal inhibitory concentration (MIC).
A further assay deals with S. aureus (ATCC 29213). Put plainly: Bacterial assay: MIC against S. aureus. The assay is classed as cell-based, Staphylococcus aureus. Particulars: Staphylococcus aureus, ATCC29213, read-out: minimal inhibitory concentration (MIC).

The structures appear in SMILES notation. ≈ marks a conversion by molar mass, not a printed value.

For `CCNC(=O)Nc1nc2cc(-c3ccc(C(O)c4nccn4C)nc3)cc(-c3ccccn3)c2s1` (centres unmarked) [Compound 24, 1-ethyl-3-[5-[6-[hydroxy-(1-methylimidazol-2-yl)methyl]-3-pyridyl]-7-(2-pyridyl)-1,3-benzothiazol-2-yl]urea], the MIC with S. pyogenes (ATCC 51339) and with S. aureus (ATCC 29213) was ≤ 1 µg/mL throughout.

For the compound `CCNC(=O)Nc1nc2cc(-c3cnc(C(C)(C)O)nc3)cc(-c3cc(CN4CC(C)(O)C4)ccn3)c2s1` [Compound 2, 1-ethyl-3-[7-[4-[(3-hydroxy-3-methyl-azetidin-1-yl)methyl]-2-pyridyl]-5-[2-(1-hydroxy-1-methyl-ethyl)pyrimidin-5-yl]-1,3-benzothiazol-2-yl]urea], the MIC in the assay on S. pyogenes (ATCC 51339) and in the assay with S. aureus (ATCC 29213) was ≤ 1 µg/mL each time.

`CCNC(=O)Nc1nc2cc(-c3ccc(C(O)c4cccnc4)nc3)c(F)cc2s1` (centres unmarked) [Compound 4, 1-ethyl-3-[6-fluoro-5-[6-[hydroxy(3-pyridyl)methyl]-3-pyridyl]-1,3-benzothiazol-2-yl]urea]: the MIC in the assay with S. pyogenes (ATCC 51339) and in the assay on S. aureus (ATCC 29213) was ≤ 1 µg/mL throughout.

Turning to `CCNC(=O)Nc1nc2cc(-c3cnc(C(C)(C)O)nc3)cc(-c3cccc(N4CCC(C)(C(=O)O)CC4)n3)c2s1` [Compound 51, 1-[6-[2-(ethylcarbamoylamino)-5-[2-(1-hydroxy-1-methyl-ethyl)pyrimidin-5-yl]-1,3-benzothiazol-7-yl]-2-pyridyl]-4-methyl-piperidine-4-carboxylic acid], the MIC in the assay on S. pyogenes (ATCC 51339) is ≤ 1 µg/mL; with S. aureus (ATCC 29213) it was 4 µg/mL (≈ 6.95 µM).

For `CCNC(=O)Nc1nc2cc(-c3cnc(C(C)(C)O)nc3)cc(-c3ccc(CN4CCOCC4)cn3)c2s1` [Compound 25, 1-ethyl-3-[5-[2-(1-hydroxy-1-methyl-ethyl)pyrimidin-5-yl]-7-[5-(morpholinomethyl)-2-pyridyl]-1,3-benzothiazol-2-yl]urea], the MIC in the assay with S. pyogenes (ATCC 51339) and in the assay on S. aureus (ATCC 29213) was ≤ 1 µg/mL throughout.

As for `CCNC(=O)Nc1nc2cc(-c3cnc(C(C)(C)O)nc3)c(OCc3ccc(OC)c(OC)c3)cc2s1` [Compound 192, 1-[6-[(3,4-dimethoxyphenyl)methoxy]-5-[2-(1-hydroxy-1-methyl-ethyl)pyrimidin-5-yl]-1,3-benzothiazol-2-yl]-3-ethyl-urea], the MIC with S. pyogenes (ATCC 51339) and with S. aureus (ATCC 29213) was ≤ 1 µg/mL each time.

Turning to `CCNC(=O)Nc1nc2cc(-c3cnc(C(C)(C)O)nc3)cc(-c3cc(CN4CCCC4)ccn3)c2s1` [Compound 26, 1-ethyl-3-[5-[2-(1-hydroxy-1-methyl-ethyl)pyrimidin-5-yl]-7-[4-(pyrrolidin-1-ylmethyl)-2-pyridyl]-1,3-benzothiazol-2-yl]urea], the MIC in the assay with S. pyogenes (ATCC 51339) and in the assay on S. aureus (ATCC 29213) was ≤ 1 µg/mL throughout.

Regarding `CCNC(=O)Nc1nc2cc(-c3cnc(C(C)(C)O)nc3)cc(-c3cc(CN4CCCC(F)(F)C4)ccn3)c2s1` [Compound 37, 1-[7-[4-[(3,3-difluoro-1-piperidyl)methyl]-2-pyridyl]-5-[2-(1-hydroxy-1-methyl-ethyl)pyrimidin-5-yl]-1,3-benzothiazol-2-yl]-3-ethyl-urea], the MIC with S. pyogenes (ATCC 51339) and with S. aureus (ATCC 29213) was ≤ 1 µg/mL throughout.

As to `CCNC(=O)Nc1nc2cc(-c3cnc(C(C)(C)O)nc3)cc(-c3nccc(NCC(C)(C)O)n3)c2s1` [Compound 103, 1-ethyl-3-[5-[2-(1-hydroxy-1-methyl-ethyl)pyrimidin-5-yl]-7-[4-[(2-hydroxy-2-methyl-propyl)amino]pyrimidin-2-yl]-1,3-benzothiazol-2-yl]urea], the MIC in the assay on S. pyogenes (ATCC 51339) is ≤ 1 µg/mL; in the assay on S. aureus (ATCC 29213) it was 2 µg/mL (≈ 3.83 µM).

As for `CCNC(=O)Nc1nc2cc(-c3cnc(C(C)O)nc3)cc(-c3cc(CN4CCC[C@H]4C(=O)O)ccn3)c2s1` (stereo partly drawn) [Compound 72, (2S)-1-[[2-[2-(ethylcarbamoylamino)-5-[2-(1-hydroxyethyl)pyrimidin-5-yl]-1,3-benzothiazol-7-yl]-4-pyridyl]methyl]pyrrolidine-2-carboxylic acid], the MIC in the assay on S. pyogenes (ATCC 51339) and with S. aureus (ATCC 29213) was 8 µg/mL (≈ 14.6 µM) each time.

In the case of `CCNC(=O)Nc1nc2cc(-c3cnc(C(C)O)nc3)cc(OCc3ccc(C)nc3)c2s1` (centres unmarked) [Compound 14, 1-ethyl-3-[5-[2-(1-hydroxyethyl)pyrimidin-5-yl]-7-[(6-methyl-3-pyridyl)methoxy]-1,3-benzothiazol-2-yl]urea], the MIC in the assay on S. pyogenes (ATCC 51339) and in the assay on S. aureus (ATCC 29213) was ≤ 1 µg/mL in each case.

Regarding `CCNC(=O)Nc1nc2cc(-c3cnc(C(C)O)nc3)cc(-c3nccc(N4CCOCC4)n3)c2s1` (centres unmarked) [Compound 94, 1-ethyl-3-[5-[2-(1-hydroxyethyl)pyrimidin-5-yl]-7-(4-morpholinopyrimidin-2-yl)-1,3-benzothiazol-2-yl]urea], the MIC in the assay on S. pyogenes (ATCC 51339) and in the assay on S. aureus (ATCC 29213) was ≤ 1 µg/mL each time.

With `CCNC(=O)Nc1nc2cc(-c3cnc(C(C)O)nc3)cc(-c3cc(O)ccn3)c2s1` (centres unmarked) [Compound 90, 1-ethyl-3-[5-[2-(1-hydroxyethyl)pyrimidin-5-yl]-7-(4-hydroxy-2-pyridyl)-1,3-benzothiazol-2-yl]urea], the results for the MIC in the assay with S. pyogenes (ATCC 51339) and in the assay with S. aureus (ATCC 29213) were 2 µg/mL (≈ 4.58 µM) and 16 µg/mL (≈ 36.7 µM), respectively.

In the case of `CCNC(=O)Nc1nc2cc(-c3cnc(C(C)(C)OC(=O)N4CCN(C)CC4)nc3)cc(-c3ccccn3)c2s1` [Compound 89, [1-[5-[2-(ethylcarbamoylamino)-7-(2-pyridyl)-1,3-benzothiazol-5-yl]pyrimidin-2-yl]-1-methyl-ethyl] 4-methylpiperazine-1-carboxylate], the values for the MIC in the assay on S. pyogenes (ATCC 51339) and in the assay on S. aureus (ATCC 29213) were 2 µg/mL (≈ 3.57 µM) and 8 µg/mL (≈ 14.3 µM), respectively.

On to `CCNC(=O)Nc1nc2cc(-c3cnc(C(C)OC(=O)N4CCN(C)CC4)nc3)cc(-c3ccccn3)c2s1` (centres unmarked) [Compound 18, 1-[5-[2-(ethylcarbamoylamino)-7-(2-pyridyl)-1,3-benzothiazol-5-yl]pyrimidin-2-yl]ethyl 4-methylpiperazine-1-carboxylate], for which the MIC in the assay with S. pyogenes (ATCC 51339) and in the assay on S. aureus (ATCC 29213) was ≤ 1 µg/mL in each case.

For the compound `CCNC(=O)Nc1nc2cc(-c3cnc(C(C)(C)O)nc3)cc(-c3cncc(CN4CCOCC4)n3)c2s1` [Compound 102, 1-ethyl-3-[5-[2-(1-hydroxy-1-methyl-ethyl)pyrimidin-5-yl]-7-[6-(morpholinomethyl)pyrazin-2-yl]-1,3-benzothiazol-2-yl]urea], the MIC in the assay on S. pyogenes (ATCC 51339) and in the assay with S. aureus (ATCC 29213) was 16 µg/mL (≈ 29.9 µM) each time.

In the case of `CCNC(=O)Nc1nc2cc(-n3cc(C(C)O)nn3)cc(-c3ccccn3)c2s1` (centres unmarked) [Compound 9, 1-ethyl-3-[5-[4-(1-hydroxyethyl)triazol-1-yl]-7-(2-pyridyl)-1,3-benzothiazol-2-yl]urea], the MIC in the assay on S. pyogenes (ATCC 51339) is ≤ 1 µg/mL; in the assay with S. aureus (ATCC 29213), 8 µg/mL (≈ 19.5 µM).

With `CCNC(=O)Nc1nc2cc(-c3cnc(C(C)(C)O)nc3)cc(-c3cc(N4CCC(C)(C(=O)O)CC4)ccn3)c2s1` [Compound 50, 1-[2-[2-(ethylcarbamoylamino)-5-[2-(1-hydroxy-1-methyl-ethyl)pyrimidin-5-yl]-1,3-benzothiazol-7-yl]-4-pyridyl]-4-methyl-piperidine-4-carboxylic acid], the MIC in the assay with S. pyogenes (ATCC 51339) and with S. aureus (ATCC 29213) was ≤ 1 µg/mL in each case.

For the compound `CCNC(=O)Nc1nc2cc(-c3cnc(C(C)(C)O)s3)cc(-c3ccccn3)c2s1` [Compound 48, 1-ethyl-3-[5-[2-(1-hydroxy-1-methyl-ethyl)thiazol-5-yl]-7-(2-pyridyl)-1,3-benzothiazol-2-yl]urea], the MIC in the assay on S. pyogenes (ATCC 51339) and in the assay on S. aureus (ATCC 29213) was ≤ 1 µg/mL each time.

The values above are taken from patent US20170260178A1 (SPERO GYRASE, INC., priority 2012, published 2017).
